Results published in patent publication US6410735B1, “1-(4-arylpiperazin-1-y1)-ω-[N-(α,ω-dicarboximido)]-alkanes useful as uro-selective α1-adrenoceptor blockers” (Ranbaxy Laboratories Limited, priority 1997, dated 2002).

Key:
[1] = tested on: anaesthetized dogs (blood pressure); assay: In vivo selectivity study, phenylephrine response on blood pressure in anaesthetized dogs; set-up: species or system dog; conditions: Canis lupus familiaris, iv 0.01-0.3 mg/kg, against phenylephrine, read-out: pseudo pKB Blood Pressure (converted)
Experimental: Male mongrel dogs (12-20 Kg) were anaesthetized with pentobarbitone sodium (35 mg/kg, iv). Trachea was intubated for artificial respiration. Femoral artery and femoral vein were cannulated for recording blood pressure and for administration of drug solutions, respectively. Blood pressure was recorded on a polygraph through a pressure transducer. A paramedian incision was made lateral to the penis and the bladder was exposed. Urine was drained through a cannula put directly into the bladder and it was guided into the urethra gently and was placed at the prostatic urethra. Balloon was inflated with 2 cc air and its placement was confirmed by digital pressure. Intraurethral pressure was recorded on the polygraph through a pressure transducer. Graded dose response relationship of phenylephrine (1-16 μg/kg, iv) was obtained on prostatic pressure and blood pressure, prior to administration of the compounds of the present invention. Compounds 2, 9, and 13 (at dosages of 0.01, 0.03, 0.1, and 0.3 mg/kg) were administered intravenously 10 min before obtaining phenylephrine dose response curves. Results were analyzed and pseudo PKB values were calculated as described in Kenny et al (1996).

α1D-adrenoceptor (aorta) = target: T1, α1D-adrenoceptor (aorta) (Rattus norvegicus, UniProt P23944); assay: In vitro functional assay, norepinephrine-induced contraction of isolated aorta; type: cell-based; conditions: rat aorta, norepinephrine; read-out: In Vitro Functional Assay (pKB) α1D (converted)
T1 construct: Aorta, prostate and spleen tissues were isolated from urethane anaesthetized (1.5 gm/kg) male wistar rats; from tissue; host or cells: isolated aorta of male Wistar rats
T1 sequence (P23944 1-561): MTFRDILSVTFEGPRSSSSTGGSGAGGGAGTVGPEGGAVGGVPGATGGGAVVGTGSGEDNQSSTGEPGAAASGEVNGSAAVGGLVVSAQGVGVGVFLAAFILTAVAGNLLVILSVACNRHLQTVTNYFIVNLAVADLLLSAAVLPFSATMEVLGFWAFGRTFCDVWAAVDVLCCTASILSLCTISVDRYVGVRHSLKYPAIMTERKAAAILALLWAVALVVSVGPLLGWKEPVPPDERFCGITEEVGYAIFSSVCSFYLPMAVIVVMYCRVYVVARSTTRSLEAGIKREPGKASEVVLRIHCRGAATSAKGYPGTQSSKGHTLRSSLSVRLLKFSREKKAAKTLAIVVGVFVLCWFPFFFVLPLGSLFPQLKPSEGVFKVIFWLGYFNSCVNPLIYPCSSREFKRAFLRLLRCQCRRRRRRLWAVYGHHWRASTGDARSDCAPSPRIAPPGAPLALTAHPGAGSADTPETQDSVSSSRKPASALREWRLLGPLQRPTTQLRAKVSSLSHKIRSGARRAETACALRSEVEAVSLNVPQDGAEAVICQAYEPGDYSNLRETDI
Text: (§1) In order to study selectivity of action of the present compounds towards different α-adrenoceptor subtypes, the ability of these compounds to antagonize α1-adrenoceptor agonist induced contractile response of aorta (α1D), prostate (α1A) and spleen (α1B) was studied. Aorta, prostate and spleen tissues were isolated from urethane anaesthetized (1.5 gm/kg) male wistar rats. Isolated tissues were mounted in organ bath containing Krebs Henseleit buffer of the following composition (mM): NaCl 118; KCl 4.7; CaCl2 2.5; MgSO4·H2O 1.2; NaHCO3 25; KH2PO4 1.2; glucose 11.5. Buffer was maintained at 37° C. and aerated with a mixture of 95% O2 and 5% CO2. A resting tension of 2 g (aorta) or 1 g (spleen and prostate) was applied to tissues. Contractile response was monitored using a force displacement transducer and recorded on chart recorders. Tissues were allowed to equilibrate for 2 hours. At the end of equilibration period, concentration response curves to norepinephrine (aorta) and phenylephrine (spleen and prostate) were obtained in the absence and presence of the tested compound (at concentrations of 0.1, 1 and 10 μM). Antagonist affinity was calculated and expressed as PKB values in Table 1.

[2] = target: T2, α1B-adrenoceptor (spleen) (Rattus norvegicus, UniProt P15823); assay: In vitro functional assay, phenylephrine-induced contraction of isolated spleen; type: cell-based; conditions: rat spleen, phenylephrine; read-out: In Vitro Functional Assay (pKB) α1B (converted)
T2 construct: Aorta, prostate and spleen tissues were isolated from urethane anaesthetized (1.5 gm/kg) male wistar rats; from tissue; host or cells: isolated spleen of male Wistar rats
T2 sequence (P15823 1-515): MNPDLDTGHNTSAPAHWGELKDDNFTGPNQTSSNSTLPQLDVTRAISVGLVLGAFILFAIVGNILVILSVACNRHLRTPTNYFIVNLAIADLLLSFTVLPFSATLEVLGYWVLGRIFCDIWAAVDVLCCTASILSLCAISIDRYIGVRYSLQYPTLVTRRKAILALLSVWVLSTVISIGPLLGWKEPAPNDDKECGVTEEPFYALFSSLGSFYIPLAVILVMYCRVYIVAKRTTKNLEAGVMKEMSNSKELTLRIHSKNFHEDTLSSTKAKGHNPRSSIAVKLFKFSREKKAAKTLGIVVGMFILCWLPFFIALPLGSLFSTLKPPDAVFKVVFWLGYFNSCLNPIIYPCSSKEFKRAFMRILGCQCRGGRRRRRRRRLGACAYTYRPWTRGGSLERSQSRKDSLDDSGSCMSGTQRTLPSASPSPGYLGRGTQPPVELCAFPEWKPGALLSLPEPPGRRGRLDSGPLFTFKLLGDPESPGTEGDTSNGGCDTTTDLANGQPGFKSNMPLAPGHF
Text: as §1

[3] = target: T3, α1A-adrenoceptor (prostate) (Rattus norvegicus, UniProt P43140); assay: In vitro functional assay, phenylephrine-induced contraction of isolated prostate; type: cell-based; conditions: rat prostate, phenylephrine; read-out: In Vitro Functional Assay (pKB) α1A (converted)
T3 construct: Aorta, prostate and spleen tissues were isolated from urethane anaesthetized (1.5 gm/kg) male wistar rats; from tissue; host or cells: isolated prostate of male Wistar rats
T3 sequence (P43140 1-466): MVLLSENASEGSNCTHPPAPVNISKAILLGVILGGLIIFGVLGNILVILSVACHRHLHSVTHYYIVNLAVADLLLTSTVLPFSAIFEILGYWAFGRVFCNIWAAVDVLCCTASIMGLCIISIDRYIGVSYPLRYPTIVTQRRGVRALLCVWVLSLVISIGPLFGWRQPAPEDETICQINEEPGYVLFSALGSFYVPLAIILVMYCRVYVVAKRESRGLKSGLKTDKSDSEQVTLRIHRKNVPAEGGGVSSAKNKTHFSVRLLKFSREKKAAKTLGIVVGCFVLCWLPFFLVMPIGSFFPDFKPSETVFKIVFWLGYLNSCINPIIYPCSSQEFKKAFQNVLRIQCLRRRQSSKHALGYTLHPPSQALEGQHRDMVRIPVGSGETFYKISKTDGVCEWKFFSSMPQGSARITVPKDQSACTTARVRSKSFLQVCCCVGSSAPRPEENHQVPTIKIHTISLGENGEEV
Text: as §1

Row | SMILES | Kb [1] [nM] | Kb (α1D-adrenoceptor (aorta)) [nM] | Kb [2] [nM] | Kb [3] [nM]
1 | COc1ccccc1N1CCN(CCCN2C(=O)CCC2=O)CC1 [Compound 2, 1-[4-(2-Methoxyphenyl)piperazin-1-yl]3-(2,5-dioxopyrrolidin-1-yl)propane] | 126 | 50.1 | 25.1 | 2
2 | COc1ccccc1N1CCN(CCCCN2C(=O)CCC2=O)CC1 [Compound 9, 1-[4-(2-Methoxyphenyl)piperazin-1-yl]-4-(2,5-dioxopyrrolidin-1-yl)butane] | 39.8 | 5.01 | 10 | 1
3 | COc1ccccc1N1CCN(CCCN2C(=O)CCCC2=O)CC1 [Compound 13, 1-[4-(2-Methoxyphenyl)piperazin-1-yl]-3-(2,6-dioxopiperidin-1-yl)propane] | 79.4 | 12.6 | 10 | 2.51
